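A five-concentration, 48-hour dose response in 96-well plates underlies each endpoint, interpolated linearly between surrounding concentrations. TGI is the concentration that stops growth completely.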

Assay in all cases: DTP human tumour cell line panel, 48 h
The subject of experiment [1] is A549 NSCLC.
The test system of experiment [2] is TK-10 renal.
The subject of experiment [3] is UACC-257 melanoma.
The test system of experiment [4] is SNB-75 CNS.
Experiment [5] deals with SW-620 colon.
The subject of experiment [6] is OVCAR-4 ovarian.
Experiment [7] deals with A498 renal.
The subject of experiment [8] is SK-OV-3 ovarian.
Experiment [9] concerns SF-268 CNS.
Experiment [10] concerns OVCAR-5 ovarian.
For experiment [11], the system named is MOLT-4 leukemia.
For experiment [12], the system named is OVCAR-3 ovarian.
For experiment [13], the system named is SK-MEL-5 melanoma.
Experiment [14] relates to HOP-62 NSCLC.
The test system of experiment [15] is HCC-2998 colon.
Experiment [16] relates to MDA-N.
The test system of experiment [17] is HCT-116 colon.
Experiment [18] has as its system MALME-3M melanoma.
In experiment [19] the test system is RPMI-8226 leukemia.
Experiment [20] concerns CCRF-CEM leukemia.

The term TGI denotes the concentration at which net growth stops. For the compound `Cc1sc(N=Nc2c(O)[nH]c3ccccc23)nc1-c1ccccc1`, the TGI in experiment [1] turned out to be 32.6 µM; in experiment [2], 59.2 µM; in experiment [3], 47.8 µM; in experiment [4], 47 µM; in [5], 71.4 µM; in experiment [6] it was 42.3 µM. Also, the TGI in experiment [7] worked out at 32.3 µM; in experiment [8] it was 33.6 µM; in [9], 38.5 µM; in [10], 49.3 µM; in experiment [11] it was 65.4 µM; in [12] it was 27.2 µM. Further, the TGI in experiment [13] came to 33.9 µM; in experiment [14] it was 33.1 µM; in experiment [15], 51.1 µM; in experiment [16], 76.4 µM; in experiment [17], 35.1 µM.
Consider `COc1cc(Cn2c3c(c4cc(O)ccc42)C(=O)c2ccccc2C3=O)cc(OC)c1`, for which the total growth inhibition concentration (TGI) in experiment [1] was 49.6 µM; in experiment [2] it was 34.9 µM; in [3], over 100 µM; in experiment [18], 43.8 µM; in [5], over 100 µM; in [6], 33.6 µM. The TGI in experiment [7] was 38.6 µM; in [8], 6.68 µM; in experiment [19], 3.73 µM; in experiment [9], 15.5 µM; in experiment [10], 32.9 µM; in [11], 90.9 µM. The TGI is 77.7 µM in experiment [12]; 18.7 µM in experiment [13]; 8.78 µM in [14]; 37.3 µM in experiment [15]; over 100 µM in experiment [16]; 12.7 µM in experiment [17].
In the case of `c1ccc(C2CC(N3CCOCC3)=Nc3ccccc3N2)cc1` (stereo not drawn), the TGI in [1], in [2], in experiment [3], in experiment [18], in experiment [5] and in [6] was over 100 µM each time. Also, the total growth inhibition concentration (TGI) in experiment [7], in experiment [8], in [19], in experiment [9], in [10] and in experiment [20] was over 100 µM in each case. Moreover, the TGI in [11], in [12], in experiment [13], in experiment [14], in experiment [16] and in [17] was over 100 µM throughout.
For `Cn1cc(-c2ccc(CCOC3CCCCO3)cc2)c2c(C#N)cccc21` (stereo not drawn), the total growth inhibition concentration (TGI) in [1], in experiment [2], in experiment [3], in [18], in [5] and in experiment [6] was over 100 µM throughout. In addition, the TGI in experiment [7], in [8], in experiment [19], in [9], in experiment [10] and in experiment [20] was over 100 µM each time. In addition, the TGI in experiment [11], in experiment [12], in experiment [13], in [14], in experiment [15] and in experiment [16] was over 100 µM in each case. In experiment [17], the concentration for total growth inhibition (TGI) was over 100 µM.
Turning to `CN1N=C(c2ccncc2)OC1c1ccc(Cl)c(Cl)c1` (stereo not drawn), the TGI in [1], in experiment [2], in experiment [3], in experiment [18], in [5] and in [6] was over 100 µM in each case. Moreover, the TGI in experiment [7], in experiment [8], in experiment [19], in experiment [9], in [10] and in experiment [20] was over 100 µM throughout. Also, the concentration for total growth inhibition (TGI) in [11], in experiment [12], in experiment [13], in [14], in [15] and in [16] was over 100 µM in each case. This compound also returned a TGI in experiment [17] of over 100 µM.
Consider `CC(=O)OCCn1c(Cc2ccc([N+](=O)[O-])cc2)nn(C(C)=O)c1=O`, for which the TGI in [1], in [2], in [3], in experiment [18], in experiment [5] and in [6] was over 100 µM each time. Moreover, the TGI in experiment [7], in [8], in [19], in [9], in experiment [10] and in [20] was over 100 µM in each case. For the same compound, the TGI in experiment [11], in [12], in [13], in [15], in [16] and in experiment [17] was over 100 µM in each case.
As to `OCCOCCO[P+]1(OCCOCCO)n2c3ccc2C(c2ccccc2)=C2C=CC(=N2)C(c2ccccc2)=c2ccc(n21)=C(c1ccccc1)C1=NC(=C3c2ccccc2)C=C1`, the TGI in [1] is 3.29 µM; in experiment [2] it was 1.74 µM; in experiment [3], 0.124 µM; in experiment [18], 0.706 µM; in experiment [5], 1.31 µM; in experiment [6], 1.05 µM. Besides, the TGI in experiment [7] is over 100 µM; in experiment [8], 1.79 µM; in experiment [19] it was 0.0896 µM; in experiment [10] it was 1.95 µM; in [20] it was 1.14 µM; in experiment [11] it was 0.189 µM. For the same compound, the TGI stood at 0.158 µM in [12]; 0.134 µM in experiment [13]; 0.321 µM in [15]; 0.121 µM in experiment [16]; 0.358 µM in experiment [17].
On to `COC(=O)C1=NN2c3ccccc3CN([C@@H](C)c3ccccc3)C(=O)[C@@H]2C1`, for which the TGI in experiment [1] is over 100 µM; in [2], over 100 µM; in [3] it was over 100 µM; in experiment [18], 62.8 µM; in [5], over 100 µM; in [6], 26.1 µM. The TGI is over 100 µM in experiment [7]; over 100 µM in [8]; 62.7 µM in [19]; over 100 µM in experiment [9]; over 100 µM in [10]; over 100 µM in experiment [20]. In addition, the TGI is 46.5 µM in [11]; 97.9 µM in experiment [12]; 32.7 µM in [13]; over 100 µM in [14]; over 100 µM in experiment [15]; over 100 µM in experiment [16]. In experiment [17], this compound registered a TGI of over 100 µM.
As to `CC(C)(C)OC(=O)C1/C(=C/CO)CN1C(=O)OC(C)(C)C` (stereo not drawn), the concentration for total growth inhibition (TGI) in experiment [1], in experiment [2], in experiment [3], in experiment [18], in experiment [5] and in experiment [6] was over 100 µM each time. The TGI in [7], in [8], in [19], in experiment [9], in [10] and in experiment [20] was over 100 µM in each case. Moreover, the TGI in [11], in experiment [12], in experiment [13], in experiment [14], in experiment [15] and in [16] was over 100 µM in each case. In [17], this compound had a TGI of over 100 µM.
For `CCOC(=O)c1sc2nc(SC)nc(Nc3ccc(OC)c(OC)c3)c2c1N`, the TGI is over 100 µM in [1]; 76.4 µM in experiment [2]; over 100 µM in [3]; over 100 µM in experiment [18]; over 100 µM in experiment [5]; over 100 µM in experiment [6]. Also, the TGI in [7] is 37.3 µM; in [8] it was 52.9 µM; in experiment [19], over 100 µM; in experiment [9], 80.9 µM; in experiment [10], over 100 µM; in experiment [20], over 100 µM. Besides, the TGI in experiment [12] was over 100 µM; in [13] it was over 100 µM; in experiment [14] it was 26 µM; in experiment [15], over 100 µM; in experiment [16] it was over 100 µM; in experiment [17], over 100 µM.
With `C=CCSc1nn(CC=C)cc2ncnc1-2`, the TGI in experiment [1], in experiment [2], in experiment [3], in experiment [4], in experiment [5] and in [7] was over 100 µM each time. In addition, the TGI in [19], in experiment [9], in [10], in [20], in [11] and in experiment [12] was over 100 µM in each case. Further, the TGI in experiment [13], in experiment [14], in experiment [16] and in [17] was over 100 µM in each case.
Take `Cc1ccc(C2SC(N)=Nc3c2c(C)nn3C(=O)c2ccncc2)cc1` (stereo not drawn): the TGI in [1], in experiment [2], in experiment [3], in experiment [4], in experiment [18] and in experiment [5] was over 10 µM each time. Moreover, the TGI in experiment [6], in experiment [8], in experiment [19], in experiment [9], in experiment [10] and in [20] was over 10 µM each time. The TGI in [11], in experiment [12], in experiment [13], in experiment [14], in experiment [15] and in experiment [16] was over 10 µM in each case. In addition, the TGI in experiment [17] was over 10 µM.
Regarding `Cc1ccc(S(=O)(=O)n2ccn3c(=O)cc(C)nc23)cc1`, the TGI in experiment [1], in experiment [2], in [3], in experiment [4], in experiment [18] and in experiment [5] was over 10 µM throughout. In addition, the TGI in [6], in [7], in experiment [8], in [19], in experiment [9] and in experiment [10] was over 10 µM in each case. Moreover, the TGI in experiment [20], in experiment [11], in [12], in experiment [13], in experiment [14] and in [16] was over 10 µM in each case. The same compound gave a TGI in experiment [17] of over 10 µM.
Regarding `COc1cc(/C=C2\NC(=O)N(/C=C3\C(=O)Oc4ccccc4C3=O)C2=O)ccc1O`, the TGI is over 100 µM in experiment [1]; over 100 µM in [2]; over 100 µM in experiment [3]; 77 µM in experiment [4]; over 100 µM in experiment [5]; over 100 µM in experiment [6]. In addition, the TGI was over 100 µM in experiment [7]; over 100 µM in experiment [8]; over 100 µM in experiment [19]; over 100 µM in experiment [9]; over 100 µM in [10]; 92.6 µM in experiment [20]. For the same compound, the TGI in [11], in experiment [13], in experiment [14], in [15], in experiment [16] and in experiment [17] was over 100 µM throughout.
Regarding `Cc1ccc(S(=O)(=O)C2=c3ncccc3=C3C(=O)c4ccccc4C(=O)C32)cc1` (stereo not drawn), the TGI was over 100 µM in experiment [1]; over 71.3 µM in [2]; over 100 µM in [3]; over 100 µM in [4]; over 100 µM in experiment [18]; over 100 µM in experiment [5]. For the same compound, the total growth inhibition concentration (TGI) in experiment [6] is 64.4 µM; in [8] it was over 100 µM; in [19], over 100 µM; in [9], over 90.3 µM; in experiment [10] it was over 83.9 µM; in experiment [20] it was over 100 µM. Also, the TGI in experiment [11] is over 100 µM; in experiment [12], over 100 µM; in experiment [13] it was over 15 µM; in [14], 9.14 µM; in experiment [15], over 100 µM; in [16] it was over 100 µM. The compound further had a TGI in [17] of over 100 µM.

These data come from PubChem BioAssay (NCI).
